Measurements: US7417034B2, “Pharmaceutically active uridine esters” (Trommsdorff GmbH & Co. KG Arzeneimittel, priority 2001, dated 2008)
Entries after “also recorded” stand apart in the source; their conditions may differ. Where two headings read alike, the source gives them in different places.

Legend:
[1] = test system: hippocampal pyramid cells; assay: in-vitro Hippocampus cuts: glucose-induced over-sensitiveness of pyramid cells (population spike); type: cell-based, rats; settings: 30 mM glucose; for IC50: amplitude of population spike, read-out: calculated IC50-value, reduction of glucose-induced over-sensitiveness; for concentration range of activity: population spike
Description: The model used to determine the effect of the compounds of the present invention on treating diabetes and/or polyneuropathy comprises the use of in-vitro Hippocampus cuts for detecting the over-sensitiveness of pyramid cells due to the enhancement of the glucose concentration. Said over-sensitiveness could be antagonized dose-dependent by the use of a compound of the general formula (I).
The Hippocampus cuts of rats present a validated model for determination of interaction between a drug substance which is in direct contact with neuronal tissue. The interaction between a pharmaceutically active compound and the brain tissue can be examined directly, because of the maintenance of the three dimensional structure of the tissue within the in-vitro Hippocampus cut. Said compounds act on a special population of nerve cells, the pyramid cells of the Hippocampus. It is known that the synapse between pyramid cells and Schaffer-collaterals (which can be electrically stimulated) use the neurotransmitter glutamate for the process of signal transduction. The result of the electric stimulation, the so called population spike, represents the amount of activated pyramid cells. Other known models allow the in-vitro determination of a neuronal network only within a time frame of up to 8 hours. The advantage of this model is that neuronal network can be analyzed in-vitro over a much longer period after chemical or electric provocation of the cells. The cells are brought to an elevated level of stimulation which allows a long term measurement of pharmacologically active compounds under patho-physiologic conditions (W. Dimpfel et al., Antimicrobial Agents and Chemotherapy 1991, 1142-1146; W. Dimpfel et al., Eur. J. Med. Res. 1996, 1, 523-527).
Within the present method the level of stimulation was elevated by the use of an increased concentration of glucose in the superfusion medium in order to measure the antagonistic effect of the compounds of the present invention. Because of the fact that α-lipoic acid had been applied to this method (W. Dimpfel et al., Eur. J. Med. Res. 1996, 1, 523-527), compound 5′ was selected as a close related compound in order to produce reasonable results when comparing α-lipoic acid and uridine with compound 5′. Thus, α-lipoic acid and uridine were selected as reference.
21 adult male CD rats had been used within the present studies. The Hippocampus was isolated after anesthetization and exsanguination of the test animals. The middle part of the Hippocampus was fixed by means of a glue in phosphate-buffered saline (NaCl: 124 mM, KCl: 5 mM, CaCl2: 2 mM, MgSO4: 2 mM, NaH2PO4: 1.25 mM, NaHCO3: 26 mM, glucose: 10 mM; control solution: ACSF; Carl Roth, Karlsruhe, Germany). The Hippocampus was subsequent cut into slides of […] by means of a Vibratom (Rhema Labortechnik). The Hippocampus cuts were stored at least one hour before the test runs in an incubation chamber under carbogen (S. J. Schiff, G. G. Somjen, Brain Research 1985, 345, 279-284).
The experiment was carried out in a so called “Base Unit with Haas Top” (Medical Systems Corporation, U.S.A.) at a temperature of 35° C. according to the protocol of H. L. Haas and R. W. Greene (Neurotransmitter and cortical function; ed. M. Avoli, T. A. Reader, R. W. Dykes and P. Gloor, pp. 483-494, Plenum Publishing Corp.). The Hippocampus cut was placed on a piece of gauze and perfused by means of peristaltic pumps. The test apparatus was flushed with carbogen (flow rate: 200 ml per hour) in order to maintain the necessary oxygen supply.
The CA2-region was stimulated by means of a stimulus generator (laboratory computer, Pro Science) and a bipolar concentric steel electrode (Rhodes Medical Systems, U.S.A.). A pulse width of 200 μs was used and the amperage was constantly kept at 200 μA. The stimulus generator released four single stimulation signals within intervals of 20 seconds which released a total number of four population spikes in the Hippocampus cut. […]

[2] = test system: 5-HT and 5-HIAA level in substantia nigra; assay: 5-HT and 5-HIAA level in rat substantia nigra; type: in vivo, Wistar rats; settings: four i.p. portions
Description: (§1) This example was selected to determine the effect of the compounds of the present invention on the concentration of dopamine its metabolite 3,4-dihydroxyphenyl acetic acid (DOPAC) and 5-hydroxytryptamine (5-HT or Serotonin) and its metabolite 5-hydroxyindol acetic acid (5-HIAA) in the substantia nigra and the Striatum of Wistar rats (Charles River, Sulzbach Rosenberg).
(§2) Said two brain regions were selected in order to examine dopaminergic neurons, because it is well known that said neurons are sensitive to neurotoxines which may cause M. Parkinson, Alzheimer, and Chorea Huntington. The method as described below was used to determine degenerative processes. Sodium malonate was used as a neurotoxic substance within said method.
100 mg of compound 5′ were dissolved in 5 ml 50% propan-1,2-diol (Merck, Darmstadt). Four 5 ml portions of compound 5′ were administered intraperitoneal to the test animals. […]
(§3) Four days after sodium malonate application, the Striatum and the treated and untreated part of the substantia nigra was separately excised, weighted, homogenized with perchloric acid, and centrifuged. Aliquots of the supernatants were subsequently subjected to HPLC and by the means of HPLC-ELCD the amount of dopamine, DOPAC, 5-HT, 5-HIM, and 3-methoxytyramine was […] measured.

[3] = test system: permanent MCA occlusion in NMRI mice; settings: for infarct area, Mean: evaluated 2 days after, vehicle only 29.89; for effect on infarct area (in words): versus controls
Method: The neuroprotective effects of α-lipoic acid and more pronounced of dihydrolipoic acid are well known (P. Wolz, J. Krieglstein, Lipoic Acid in Health and Disease, New York, Basel, Hong Kong, Marcel Dekker Inc., 1997, pp. 205-225). Thus, dihydrolipoic acid was chosen as a positive control for comparison reasons.
Permanent middle cerebral artery (MCA) occlusion was performed in male NMRI mice (12 to 17 animals per group) according to the method described by Welsh et al. (J. Neurochem. 1987, 846-851). Briefly, after the mice were anesthetized with tribromoethanol (600 mg/kg intraperitoneally), a small hole was drilled in the skull to expose the middle cerebral artery. The stem of the middle cerebral artery and both branches were permanently occluded by electrocoagulation. Body temperature was maintained at 37° C.±1° C. with a heating lamp during the surgical procedure. Afterwards, the mice were kept at an environmental temperature of 30° C. for 2 hours after MCA occlusion.
For histologic evaluation, the mice were anesthetized again with tribromoethanol and perfused intraperitoneally with a 1.5% solution of neutral red (0.5 ml) 2 days after middle cerebral artery occlusion. The brains were removed and stored in a fixative (4% formalin in phosphate buffer solution, pH 7.4) for 24 hours.
The tissue on the brain surface unstained by neutral red was determined (in square millimeters) as infarcted surface area by means of an image analyzing system (Kontron, Eching, Germany) according to the publication of C. Backhauβ.
The injection of compound 5′, dihydrolipoic acid, and the vehicle only was performed intraperitoneally 1 hour before MCA occlusion. Compound 5′ and dihydrolipoic acid were dissolved in 25% macrogol 400 (vehicle). The injected volume was always 0.25-0.30 ml per mouse. Doses of 100, 150, and 500 mg/kg compound 5′ and 150 mg/kg dihydrolipoic acid were used. The control group received the vehicle (0.25-0.30 ml 25% macrogol 400 per mouse) only.
The differences between compound 5′-treated, dihydrolipoic acid-treated, and vehicle-treated animals were evaluated statistically according to the ANOVA and DUNCAN test.

[4] = test system: dopamine and DOPAC concentration in the Striatum; assay: Dopamine and DOPAC concentration in rat Striatum, sodium malonate neurotoxicity model; type: in vivo, Wistar rats
Description: as §1, §2
It is known that sodium malonate increases the release von dopamine in the Striatum of the test animals. Groups of six Wistar rats each have been used as test animals. Thus, the dopamine concentration can be used as an indicator in order to determine the harmful effect of neurotoxines.
100 mg of compound 5′ were dissolved in 5 ml 50% propan-1,2-diol (Merck, Darmstadt). Four 5 ml portions of compound 5′ were administered intraperitoneal to the test animals. The first portion was administered in the evening of the first test day, the second portion during the next morning, the third portion in the evening of the second test day and the late portion during the morning of the third test day. Thirty minutes after the last application of compound 5′ 2 μmol sodium malonate dissolved in physiologic sodium chloride solution were injected into the left Striatum by means of a precision pump (flow rate 0.5 μl/min.) after having anesthetized the rats (Ketamin: 80 mg/kg and Xylasin: 6-10 mg/kg).
as §3

[5] = 150 mg/kg intraperitoneally 1 hour before MCA occlusion
[6] = compound alone, four i.p. portions, p<0.05
[7] = 2 μmol sodium malonate injected into left Striatum, four days after, p<0.001

## O=C(CCCCC(S)CCS)OC[C@H]1O[C@@H](n2ccc(=O)[nH]c2=O)[C@H](O)[C@@H]1O (stereo partly drawn) [Compound 5′, (2′R,3′S,4′R,5′R)-6,8-Dimercapto-octanoic acid 5′-(2,4-dioxo-3,4-dihydro-2H-pyrimidine-1-yl)-3′,4′-dihydroxy-tetrahydrofuran-2′-ylmethyl ester]
[1]; rat Hippocampus cuts
  reduction of the elevated stimulation level / over-sensitiveness (in words): able to reduce dose-dependent the elevated stimulation level; also recorded: most effectively treated; also recorded: able to significantly reduce the increased over-sensitiveness
  IC50: 5 µM
  concentration range of activity: 1 to 25 µM
[2]; FIG. 5a
  5-HT concentration in rat substantia nigra (in words): significantly increase; also recorded: increased dramatically
[2]; FIG. 5b
  5-HIAA level in rat substantia nigra (in words): significantly increase; also recorded: increased dramatically
[3]; 100 mg/kg intraperitoneally 1 hour before MCA occlusion
  infarct area, Mean: 26.22 square millimeters
[3]; [5]
  infarct area, Mean: 27.00 square millimeters
[3]; 500 mg/kg i.p.
  effect on infarct area (in words): no longer statistically reduced; also recorded: only a slight neuroprotective effect
[3]; 500 mg/kg intraperitoneally 1 hour before MCA occlusion
  infarct area, Mean: 28.24 square millimeters
[3]; lowest dose, 100 mg (100 mg/kg) i.p., versus vehicle
  effect on infarcted area (in words): significantly reduced the infarcted area; also recorded: most pronounced
[3]; mice of the MCA occlusion study, 100-500 mg/kg i.p.
  toxic effects in mice: no toxic effects could be detected
[4]; FIG. 4, relatively low concentrations
  compensation of malonate-induced dopamine depletion in rat striatum (in words): can almost be compensated
[4]; [6]
  change of the concentration of DOPAC in the Striatum: +10%
  change of the concentration of dopamine in the Striatum: +18%
[4]; compound i.p. together with 2 μmol sodium malonate into left Striatum
  more dopamine in comparison to the application of malonate only: +44%

## O=C(CCCC[C@@H]1CCSS1)OC[C@H]1O[C@@H](n2ccc(=O)[nH]c2=O)[C@H](O)[C@@H]1O [Compound R-5, (2′R,3R,3′S,4′R,5′R)-5-[1,2]Dithiolan-3-yl-pentanoic acid 5′-(2,4-dioxo-3,4-dihydro-2H-pyrimidine-1-yl)-3′,4′-dihydroxy-tetrahydrofuran-2′-ylmethyl ester]
[1]; rat Hippocampus cuts
  IC50: 8 µM
  concentration range of activity: 1 to 15 µM

## O=C(CCCC[C@H]1CCSS1)OC[C@H]1O[C@@H](n2ccc(=O)[nH]c2=O)[C@H](O)[C@@H]1O [Compound S-5, (2′R,3S,3′S,4′R,5′R)-5-[1,2]Dithiolan-3-yl-pentanoic acid 5′-(2,4-dioxo-3,4-dihydro-2H-pyrimidine-1-yl)-3′,4′-dihydroxy-tetrahydrofuran-2′-ylmethyl ester]
[1]; rat Hippocampus cuts
  IC50: 4 µM
  concentration range of activity: 1 to 10 µM

## O=c1ccn([C@@H]2O[C@H](CO)[C@@H](O)[C@H]2O)c(=O)[nH]1 [uridine]
[1]; Rattus norvegicus
  IC50: 40 µM
[1]; rat Hippocampus cuts
  reduction of the elevated stimulation level / over-sensitiveness (in words): able to reduce dose-dependent the elevated stimulation level; also recorded: only weaker effects; also recorded: much weaker effects

## O=C(O)CCCC[C@@H](S)CCS (racemic) [dihydrolipoic acid, reference compound]
[3]; 150 mg/kg i.p.
  effect on infarct area (in words): no effect at all
[3]; [5]
  infarct area, Mean: 27.94 square millimeters

## O=C(O)CCCCC1CCSS1 (stereo not drawn) [α-lipoic acid, reference compound]
[1]; rat Hippocampus cuts
  reduction of the elevated stimulation level / over-sensitiveness (in words): able to reduce dose-dependent the elevated stimulation level; also recorded: only weaker effects; also recorded: much weaker effects
  IC50: ~200 µM
  concentration range of activity: ≤ 400 µM

## O=C([O-])CC(=O)[O-].[Na+].[Na+] [malonate, sodium malonate, reference compound]
[4]; [7]
  change of the concentration of DOPAC: −30%
  change of the concentration of dopamine: −44%
